According to patent US20250325562A1, “Intravenous Ganaxolone Formulations and Methods of Use in Treating Status Epilepticus and Other Seizure Disorders” (MARINUS PHARMACEUTICALS, INC., priority 2015, published 2025):

Test system: pilocarpine induced status epilepticus (SE)
Test: Pilocarpine-induced status epilepticus in rats, cortical EEG power
Format: in vivo, Male Sprague-Dawley rats
Set-up: key to Treatment effect on EEG power vs vehicle, significance: * P < 0.05; ** P < 0.01; *** P < 0.001; **** P < 0.0001; ns = not significant
Procedure: This study was designed to determine the ability of a CAPTISOL-ganaxolone (GNX) formulation administered intravenously (IV) at 12 and 15 mg/kg to inhibit pilocarpine induced status epilepticus (SE). Allopregnanolone (Allo) (15 mg/kg; IV) was also evaluated for comparison. In this study, test drugs were administered either 15 or 60 minutes after onset of SE and compared to vehicle (30% Captisol).
Cortical EEG activity was recorded in rats before and after administration of pilocarpine to induce SE. Animals were pre-treated with LiCl to enhance and improve reliability of seizure induction and scopolamine to reduce peripheral cholinergic side effects of pilocarpine. EEG activity was recorded for 5 h after SE onset, and anticonvulsant activity was assessed by determining changes in EEG power over frequency ranges from 0.3 to 96 Hz.
Male Sprague-Dawley rats were used for the studies. Rats were surgically implanted with EEG electrodes and jugular vein catheters. The mean weight at the time of recording was 321+3 g (269-351 g).
EEG electrodes were surgically implanted in anesthetized rats. Animals were also treated with an anti-inflammatory anaelgesic (RIMADYL, (carprofen)) prior to surgery and a subcutaneous local anesthetic. Stainless steel screw electrodes chronically were implanted in the skull (0-80×¼″, Plastics-One, Roanoke, VA) such that the ends of the screws were flush with the inner skull surface. One electrode was located 3.0 mm anterior to bregma and 2 mm to the left of midline, and the second 4.0 mm posterior to bregma and 2.5 mm to the right of midline. The skull surface around the electrodes was sealed with super glue and dental acrylic, and the EEG electrode lead wires were inserted into a plastic pedestal mounted on the skull using dental acrylic. Wound edges were treated with triple antibiotic cream (bacitracin zinc, neomycin sulfate, polymyxin B sulfate; Walgreens). Following surgery, animals were administered antibiotic (ampicillin, 50 mg/kg IP at 0.4 mL/kg) and also received a chewable dose (˜10 mg) of Rimadyl following surgery. The animals were allowed to recover from EEG surgery for 1 week.
Rats were implanted with jugular-vein catheters (JVC) one week following EEG surgery. Rats were administered an anti-inflammatory/analgesic and then anesthetized and placed in a supine position. An incision was made in the skin on the right ventrolateral aspect of the neck to expose the external jugular vein which was then dissected free of surrounding fascia. A ligature was tied around the vein anteriorly to occlude blood flow returning to the heart. A second ligature was loosely tied around the vein posteriorly to create tension on the vessel during venotomy and catheter insertion. After incising the vein, a PE catheter (3Fr) was inserted into the vein and advanced approximately 30 mm towards the heart, positioning the tip at the junction of the precava and right atrium. After confirming patency of the catheter by blood withdrawal, the posterior ligature was tied off, and the catheter flushed with a “heparin-lock” solution (5 units heparin/ml saline) and plugged with a sterilized stainless steel pin. The catheter was then exteriorized by tunneling through the subcutaneous tissue to exit posterior to the head between the shoulder blades. Lastly, after suturing the catheter to the skin, all wounds were closed using sutures or wound clips. Immediately following surgery, the animals were awakened to assess catheter patency. Animals also received a chewable dose (˜10 mg) of Rimadyl following surgery to minimize pain and inflammation.
Animals were allowed a 1-week recovery time following JVC surgery. Jugular vein catheters were flushed daily with a 0.1 mL of heparin solution (5 units/mL) to maintain patency. On the day of surgery, the flushing solution contained ampicillin sulbactam (50 mg/kg). […]

SMILES: CC(=O)[C@H]1CC[C@H]2[C@@H]3CC[C@H]4C[C@](C)(O)CC[C@]4(C)[C@H]3CC[C@]12C [Ganaxolone, 3α-hydroxy, 3β-methyl-5α-pregnan-20-one]
- Treatment effect on EEG power vs vehicle, significance (12 mg/kg IV, 60 min post SE onset, 10-30 Hz, 3-5 hrs post drug): ns
- Treatment effect on EEG power vs vehicle, significance (12 mg/kg IV, 60 min post SE onset, 10-30 Hz, 15-30 min post drug): ** (** P < 0.01)
- Treatment effect on EEG power vs vehicle, significance (12 mg/kg IV, 60 min post SE onset, 10-30 Hz, 30-60 min post drug): ** (** P < 0.01)
- Treatment effect on EEG power vs vehicle, significance (12 mg/kg IV, 60 min post SE onset, 30-50 Hz, 0-15 min. post drug): ns
- Treatment effect on EEG power vs vehicle, significance (12 mg/kg IV, 60 min post SE onset, 30-50 Hz, 1-2 hrs post drug): ** (** P < 0.01)
- Treatment effect on EEG power vs vehicle, significance (12 mg/kg IV, 60 min post SE onset, 30-50 Hz, 2-3 hrs post drug): * (* P < 0.05)
- Treatment effect on EEG power vs vehicle, significance (12 mg/kg IV, 60 min post SE onset, 30-50 Hz, 3-5 hrs post drug): ns
- Treatment effect on EEG power vs vehicle, significance (12 mg/kg IV, 60 min post SE onset, 30-50 Hz, 15-30 min post drug): ns
- Treatment effect on EEG power vs vehicle, significance (12 mg/kg IV, 60 min post SE onset, 30-50 Hz, 30-60 min post drug): * (* P < 0.05)
- Treatment effect on EEG power vs vehicle, significance (12 mg/kg IV, 60 min post SE onset, 50-70 Hz, 0-15 min. post drug): ns
- Treatment effect on EEG power vs vehicle, significance (12 mg/kg IV, 60 min post SE onset, 50-70 Hz, 1-2 hrs post drug): ** (** P < 0.01)
- Treatment effect on EEG power vs vehicle, significance (12 mg/kg IV, 60 min post SE onset, 50-70 Hz, 15-30 min post drug): * (* P < 0.05)
- Treatment effect on EEG power vs vehicle, significance (12 mg/kg IV, 60 min post SE onset, 50-70 Hz, 30-60 min post drug): ** (** P < 0.01)
- Treatment effect on EEG power vs vehicle, significance (15 mg/kg IV, 15 min post SE onset, 0-5 Hz, 0-15 min. post drug): **** (**** P < 0.0001)
- Treatment effect on EEG power vs vehicle, significance (15 mg/kg IV, 15 min post SE onset, 0-5 Hz, 1-2 hrs post drug): **** (**** P < 0.0001)
- Treatment effect on EEG power vs vehicle, significance (15 mg/kg IV, 15 min post SE onset, 0-5 Hz, 2-3 hrs post drug): **** (**** P < 0.0001)
- Treatment effect on EEG power vs vehicle, significance (15 mg/kg IV, 15 min post SE onset, 0-5 Hz, 3-5 hrs post drug): *** (*** P < 0.001)
- Treatment effect on EEG power vs vehicle, significance (15 mg/kg IV, 15 min post SE onset, 0-5 Hz, 15-30 min post drug): **** (**** P < 0.0001)
- Treatment effect on EEG power vs vehicle, significance (15 mg/kg IV, 15 min post SE onset, 0-5 Hz, 30-60 min post drug): **** (**** P < 0.0001)
- Treatment effect on EEG power vs vehicle, significance (15 mg/kg IV, 15 min post SE onset, 5-10 Hz, 0-15 min. post drug): **** (**** P < 0.0001)
- Treatment effect on EEG power vs vehicle, significance (15 mg/kg IV, 15 min post SE onset, 5-10 Hz, 1-2 hrs post drug): **** (**** P < 0.0001)
- Treatment effect on EEG power vs vehicle, significance (15 mg/kg IV, 15 min post SE onset, 5-10 Hz, 2-3 hrs post drug): *** (*** P < 0.001)
- Treatment effect on EEG power vs vehicle, significance (15 mg/kg IV, 15 min post SE onset, 5-10 Hz, 3-5 hrs post drug): ns
- Treatment effect on EEG power vs vehicle, significance (15 mg/kg IV, 15 min post SE onset, 5-10 Hz, 15-30 min post drug): **** (**** P < 0.0001)
- Treatment effect on EEG power vs vehicle, significance (15 mg/kg IV, 15 min post SE onset, 5-10 Hz, 30-60 min post drug): **** (**** P < 0.0001)
- Treatment effect on EEG power vs vehicle, significance (15 mg/kg IV, 15 min post SE onset, 10-30 Hz, 0-15 min. post drug): **** (**** P < 0.0001)
- Treatment effect on EEG power vs vehicle, significance (15 mg/kg IV, 15 min post SE onset, 10-30 Hz, 1-2 hrs post drug): ** (** P < 0.01)
- Treatment effect on EEG power vs vehicle, significance (15 mg/kg IV, 15 min post SE onset, 10-30 Hz, 2-3 hrs post drug): * (* P < 0.05)
- Treatment effect on EEG power vs vehicle, significance (15 mg/kg IV, 15 min post SE onset, 10-30 Hz, 3-5 hrs post drug): ns
- Treatment effect on EEG power vs vehicle, significance (15 mg/kg IV, 15 min post SE onset, 10-30 Hz, 15-30 min post drug): **** (**** P < 0.0001)
- Treatment effect on EEG power vs vehicle, significance (15 mg/kg IV, 15 min post SE onset, 10-30 Hz, 30-60 min post drug): **** (**** P < 0.0001)
- Treatment effect on EEG power vs vehicle, significance (15 mg/kg IV, 15 min post SE onset, 30-50 Hz, 0-15 min. post drug): *** (*** P < 0.001)
- Treatment effect on EEG power vs vehicle, significance (15 mg/kg IV, 15 min post SE onset, 30-50 Hz, 1-2 hrs post drug): ** (** P < 0.01)
- Treatment effect on EEG power vs vehicle, significance (15 mg/kg IV, 15 min post SE onset, 30-50 Hz, 2-3 hrs post drug): ns
- Treatment effect on EEG power vs vehicle, significance (15 mg/kg IV, 15 min post SE onset, 30-50 Hz, 3-5 hrs post drug): ns
- Treatment effect on EEG power vs vehicle, significance (15 mg/kg IV, 15 min post SE onset, 30-50 Hz, 15-30 min post drug): *** (*** P < 0.001)
- Treatment effect on EEG power vs vehicle, significance (15 mg/kg IV, 15 min post SE onset, 30-50 Hz, 30-60 min post drug): *** (*** P < 0.001)
- Treatment effect on EEG power vs vehicle, significance (15 mg/kg IV, 15 min post SE onset, 50-70 Hz, 0-15 min. post drug): ** (** P < 0.01)
- Treatment effect on EEG power vs vehicle, significance (15 mg/kg IV, 15 min post SE onset, 50-70 Hz, 1-2 hrs post drug): ** (** P < 0.01)
- Treatment effect on EEG power vs vehicle, significance (15 mg/kg IV, 15 min post SE onset, 50-70 Hz, 2-3 hrs post drug): ns
- Treatment effect on EEG power vs vehicle, significance (15 mg/kg IV, 15 min post SE onset, 50-70 Hz, 3-5 hrs post drug): ns
- Treatment effect on EEG power vs vehicle, significance (15 mg/kg IV, 15 min post SE onset, 50-70 Hz, 15-30 min post drug): ** (** P < 0.01)
- Treatment effect on EEG power vs vehicle, significance (15 mg/kg IV, 15 min post SE onset, 50-70 Hz, 30-60 min post drug): ** (** P < 0.01)
- Treatment effect on EEG power vs vehicle, significance (15 mg/kg IV, 15 min post SE onset, 70-96 Hz, 0-15 min. post drug): ** (** P < 0.01)
- Treatment effect on EEG power vs vehicle, significance (15 mg/kg IV, 15 min post SE onset, 70-96 Hz, 1-2 hrs post drug): ** (** P < 0.01)
- Treatment effect on EEG power vs vehicle, significance (15 mg/kg IV, 15 min post SE onset, 70-96 Hz, 2-3 hrs post drug): ns
- Treatment effect on EEG power vs vehicle, significance (15 mg/kg IV, 15 min post SE onset, 70-96 Hz, 3-5 hrs post drug): ns
- Treatment effect on EEG power vs vehicle, significance (15 mg/kg IV, 15 min post SE onset, 70-96 Hz, 15-30 min post drug): *** (*** P < 0.001)
- Treatment effect on EEG power vs vehicle, significance (15 mg/kg IV, 15 min post SE onset, 70-96 Hz, 30-60 min post drug): ** (** P < 0.01)
- reduction in SE amplitude (12 and 15 mg/kg IV): very strong reduction in SE amplitude overall
- EEG power (dosed 15 minutes after SE-onset): reduced EEG power across all frequency ranges to levels at or below baseline for at up to 5 h
- EEG power (dosed at 60′ post SE-onset, not below baseline up to 70 Hz): strongly reduced
